Read-outs that look alike come from different tables or passages of the source.
Test system: SARS-CoV2/ZG/297-20
Type: cell-based
Conditions: Calu-3 cells infected with SARS-CoV-2, MOI 0.05, observed for 120 hours, level about equal to uninfected cells

Structure (SMILES) | confluence of Calu-3 cells as compared to the infected cells (concentrations between 16 and 81 μM, FIG. 2) | confluence of Calu-3 cells as compared to the infected cells (concentrations between 4 and 27 μM, FIG. 1)
COc1cc2ncc3c(c2cc1-c1cnn(C)c1)n(-c1ccc(C#N)cc1F)c(=O)n3C [NCE16, 3-fluoro-4-[7-methoxy-3-methyl-8-(1-methyl-1H-pyrazol-4-yl)-2-oxo-2,3-dihydro-imidazo[4,5-c]quinolin-1-yl]-benzonitrile] | significant retainment or improvement of the confluence of the cells | 
COc1cc2ncc3c(c2cc1-c1cn(C)nc1C)n(-c1c(F)cncc1OC)c(=O)n3C (atropisomer, axis not shown; (Sa)) [NCE4, 8-(1,3-dimethyl-1H-pyrazol-4-yl)-1-(Sa)-(3-fluoro-5-methoxy-pyridin-4-yl)-7-methoxy-3-methyl-1,3-dihydro-imidazo[4,5-c]quinolin-2-one] |  | significant retainment or improvement of the confluence of the cells
